Data from patent publication US6898533B1, “Methods for predicting the biological, chemical, and physical properties of molecules from their spectral properties” (The United States of America as represented by the …, priority 2000, dated 2005).
Read-outs that look alike come from different tables or passages of the source.

Columns and labels:
estrogen receptor [1] = assay: estrogen receptor relative binding affinity, expanded training set of 107 compounds; settings: input class, 107-compound training set
Excerpt: The training set included weak estrogen receptor binders in addition to strong and medium estrogen receptor binders.
For this model, strong estrogen receptor binders were defined as having log(RBA)>−0.25 and weak estrogen receptor binders were defined as having log(RBA)<−3.0. Medium estrogen receptor binders were defined as having log(RBA) in between.

estrogen receptor [2] = settings: 107-compound training set; cited from earlier work
[3] = molecular target: beta (ERβ) estrogen receptor (Rattus norvegicus, UniProt Q62986); settings: cited from earlier work
Chain of beta (ERβ) estrogen receptor (Q62986 whole entry): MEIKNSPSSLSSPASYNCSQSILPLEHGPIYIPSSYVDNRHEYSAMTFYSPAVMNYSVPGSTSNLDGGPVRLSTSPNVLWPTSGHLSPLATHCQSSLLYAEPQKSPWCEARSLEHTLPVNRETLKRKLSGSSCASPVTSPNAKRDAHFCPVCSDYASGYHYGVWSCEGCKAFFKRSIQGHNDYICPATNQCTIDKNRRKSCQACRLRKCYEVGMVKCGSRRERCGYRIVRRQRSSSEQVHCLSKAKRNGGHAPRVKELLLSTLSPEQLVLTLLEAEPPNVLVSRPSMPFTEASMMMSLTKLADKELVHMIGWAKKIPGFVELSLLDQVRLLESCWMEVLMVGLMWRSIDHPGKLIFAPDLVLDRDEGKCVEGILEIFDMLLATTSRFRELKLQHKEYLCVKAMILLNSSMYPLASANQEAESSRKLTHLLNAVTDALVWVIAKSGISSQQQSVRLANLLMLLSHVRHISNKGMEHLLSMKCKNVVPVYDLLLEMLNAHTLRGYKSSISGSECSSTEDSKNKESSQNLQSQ

estrogen receptor [4] = assay: estrogen receptor binding class of the 30-compound training set
Excerpt: Two Spectral Data-Activity Relationship (SDAR) models were established, based on ^13C NMR and EI MS spectra, for 30 estrogenic chemicals whose relative binding affinities (RBA) for the alpha (ERα) and beta (ERβ) estrogen receptors are available.
Strong binders to the estrogen receptor were classified as having a log (RBA) over 0.0, and medium binders to the estrogen receptor were classified as having a log (RBA) of less than or equal to 0.0.

[5] = formation of singlet oxygen in fluid solutions; cited from earlier work
[6] = quantum yield for photosensitized production of singlet oxygen; type: physicochemical
Excerpt: Phototosensitized oxidations involving singlet oxygen, a strong oxidant, are implicated in photodynamic inactivation of viruses and cells, in phototherapy for cancer, in photocarcinogenesis and in photodegradation of dyes and polymers. Quenching of excited singlet and triplet states of many substances by ground state molecular oxygen produces singlet oxygen; the lowest electronically excited singlet state of molecular oxygen. A compilation of the quantum yields for the formation of singlet oxygen in fluid solutions for over 700 substances is available from the Notre Dame Radiation Laboratory—Radiation Chemistry Data Center.
The compounds are divided into two endpoint classes based upon having a high quantum yield for production of singlet oxygen (H, QY>0.50) or a low quantum yield for production of singlet oxygen (L, QY<0.50).

[7] = molecular target: T1, alpha (ERα) estrogen receptor (Homo sapiens, UniProt P03372); settings: cited from earlier work
T1 sequence (P03372 1-595): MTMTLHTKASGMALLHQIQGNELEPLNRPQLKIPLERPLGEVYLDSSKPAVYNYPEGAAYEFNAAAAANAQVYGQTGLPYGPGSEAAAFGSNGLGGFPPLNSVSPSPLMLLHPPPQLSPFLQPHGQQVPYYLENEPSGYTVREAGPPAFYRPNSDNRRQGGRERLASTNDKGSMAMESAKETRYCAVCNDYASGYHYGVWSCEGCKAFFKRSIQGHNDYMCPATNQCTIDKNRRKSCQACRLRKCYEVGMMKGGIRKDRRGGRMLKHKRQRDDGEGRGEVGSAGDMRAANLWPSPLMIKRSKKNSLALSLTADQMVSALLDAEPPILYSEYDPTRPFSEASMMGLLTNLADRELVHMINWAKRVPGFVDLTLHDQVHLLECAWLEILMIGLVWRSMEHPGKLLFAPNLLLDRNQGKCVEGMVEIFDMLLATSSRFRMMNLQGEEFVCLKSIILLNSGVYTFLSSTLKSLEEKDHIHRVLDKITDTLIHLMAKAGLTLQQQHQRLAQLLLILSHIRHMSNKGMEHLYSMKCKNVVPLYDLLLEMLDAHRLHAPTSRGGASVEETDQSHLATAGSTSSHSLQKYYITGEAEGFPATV

[8] = class from singlet oxygen quantum yield
[9] = log of relative binding affinity, 17-β-estradiol RBA = 100
[10] = SDAR training input endpoint class, 30 compounds

Structure (SMILES): CC/C(=C(/CC)c1ccc(O)cc1)c1ccc(O)cc1 [Diethystibesterol]
- Class (estrogen receptor [1]): S (strong estrogen receptor binders were defined as having log(RBA)>−0.25)
- log RBA (estrogen receptor [2]): 2.60
- Log-(RBA) beta [3]: 2.47
- Class Input (estrogen receptor [4]): S (key: Strong binders to the estrogen receptor were classified as having a log (RBA) over 0.0; M: medium binders to the estrogen receptor were classified as having a log (RBA) of less than or equal to 0.0)

Structure (SMILES): CC(C)(C)C(=S)c1ccccc1 [Pivalothiophenone]
- Quantum Yield [5]: 1.0
- Endpoint Class [6, 8]: H (high quantum yield for production of singlet oxygen (H, QY>0.50))

Structure (SMILES): CC(=O)c1ccccc1 [Acetophenone]
- Quantum Yield [5]: 0.29
- Endpoint Class [6, 8]: L (low quantum yield for production of singlet oxygen (L, QY<0.50))

Structure (SMILES): C[C@]12CCC(=O)C[C@H]1CC[C@@H]1[C@@H]2CC[C@]2(C)C(=O)CC[C@@H]12 [5β-Androstanedione]
- Log-(RBA) beta [3]: <−2.0
- Log-(RBA) alpha [7]: <−2.0
- Class Input (estrogen receptor [4]): M (key: Strong binders to the estrogen receptor were classified as having a log (RBA) over 0.0; M: medium binders to the estrogen receptor were classified as having a log (RBA) of less than or equal to 0.0)
- RBA class in words (estrogen receptor [4]): medium

Structure (SMILES): C(=C\c1ccccc1)/c1ccccc1 [(E)-Stilbene]
- Quantum Yield [5]: 0.08
- Endpoint Class [6, 8]: L (low quantum yield for production of singlet oxygen (L, QY<0.50))

Structure (SMILES): C[C@]12CCC(=O)C[C@@H]1CC[C@@H]1[C@@H]2CC[C@]2(C)[C@@H](O)CC[C@@H]12 [Dihydrotestosterone]
- Log-(RBA) beta [3]: −0.77
- Class Input (estrogen receptor [4]): M (key: Strong binders to the estrogen receptor were classified as having a log (RBA) over 0.0; M: medium binders to the estrogen receptor were classified as having a log (RBA) of less than or equal to 0.0)

Structure (SMILES): O=C1C=Cc2cccc3cccc1c23 [Phenalen-1-one]
- Quantum Yield [5]: 0.94
- Endpoint Class [6, 8]: H (high quantum yield for production of singlet oxygen (H, QY>0.50))

Structure (SMILES): C[C@]12CC[C@@H]3c4ccc(O)cc4CC[C@H]3[C@@H]1C[C@@H](O)[C@@H]2O [Estriol]
- Log-(RBA) beta [3, 9]: 1.32

Structure (SMILES): C[C@]12CC[C@H]3[C@@H](CCC4=CC(=O)CC[C@@H]43)[C@@H]1CC[C@@H]2O [Nandrolone]
- Log-(RBA) beta [3]: −0.64
- Log-(RBA) alpha [7]: −2.00
- Class Input (estrogen receptor [4]; [10]): M (medium binders to the estrogen receptor were classified as having a log (RBA) of less than or equal to 0.0)

Structure (SMILES): c1ccc2cc3ccccc3cc2c1 [Anthracene]
- Quantum Yield [5]: 0.83
- Endpoint Class [6, 8]: H (high quantum yield for production of singlet oxygen (H, QY>0.50))

Structure (SMILES): CCCCN(C)C(=O)CCCCCCCCCC[C@@H]1Cc2cc(O)ccc2[C@H]2CC[C@]3(C)[C@@H](O)CC[C@H]3[C@H]12 [ICI 164,384]
- Class (estrogen receptor [1]): S (strong estrogen receptor binders were defined as having log(RBA)>−0.25)
- log RBA (estrogen receptor [2]): 1.16
- Log-(RBA) beta [3, 9]: 2.22
- Class Input (estrogen receptor [4]; [10]): S (Strong binders to the estrogen receptor were classified as having a log (RBA) over 0.0)

Structure (SMILES): C[C@]12CCC(=O)C[C@@H]1CC[C@@H]1[C@@H]2CC[C@]2(C)C(=O)CC[C@@H]12 [5α-Androstanedione]
- Log-(RBA) beta [3]: <−2.0
- Log-(RBA) alpha [7]: <−2.0
- Class Input (estrogen receptor [4]): M (key: Strong binders to the estrogen receptor were classified as having a log (RBA) over 0.0; M: medium binders to the estrogen receptor were classified as having a log (RBA) of less than or equal to 0.0)
- RBA class in words (estrogen receptor [4]): medium

Structure (SMILES): c1ccc2c(c1)Cc1ccccc1-2 [Flourene]
- Quantum Yield [5]: 0.74
- Endpoint Class [6, 8]: H (high quantum yield for production of singlet oxygen (H, QY>0.50))

Structure (SMILES): O=c1c(-c2ccc(O)cc2)coc2cc(O)cc(O)c12 [Genistein]
- Class (estrogen receptor [1]): M (Medium estrogen receptor binders were defined as having log(RBA) in between)
- Class Input (estrogen receptor [4]; [10]): S (Strong binders to the estrogen receptor were classified as having a log (RBA) over 0.0)

Structure (SMILES): O=c1ccc2cc3ccoc3cc2o1 [Psoralen]
- Quantum Yield [5]: 0.0055
- Endpoint Class [6, 8]: L (low quantum yield for production of singlet oxygen (L, QY<0.50))

Structure (SMILES): O=C(c1ccccc1)c1ccccc1 [Benzophenone]
- Quantum Yield [5]: 0.29
- Endpoint Class [6, 8]: L (low quantum yield for production of singlet oxygen (L, QY<0.50))

Structure (SMILES): O=c1oc2cc(O)ccc2c2oc3cc(O)ccc3c12 [Coumestrol]
- Log-(RBA) beta [3, 9]: 2.27

Structure (SMILES): c1ccc2nc3ccccc3cc2c1 [Acridine]
- Quantum Yield [5]: 0.83
- Endpoint Class [6, 8]: H (high quantum yield for production of singlet oxygen (H, QY>0.50))

Structure (SMILES): c1ccc(-c2oc(-c3ccccc3)c3ccccc23)cc1 [1,3-Diphenylisobenzofuran]
- Quantum Yield [5]: 0.26
- Endpoint Class [6, 8]: L (low quantum yield for production of singlet oxygen (L, QY<0.50))

Structure (SMILES): Cn1ccc2ccccc21 [1-Methylindole]
- Quantum Yield [5]: 0.35
- Endpoint Class [6, 8]: L (low quantum yield for production of singlet oxygen (L, QY<0.50))

Structure (SMILES): O=C1c2ccccc2Cc2ccccc21 [Anthrone]
- Quantum Yield [5]: 0.25
- Endpoint Class [6, 8]: L (low quantum yield for production of singlet oxygen (L, QY<0.50))

Structure (SMILES): c1ccc2cc3cc4ccccc4cc3cc2c1 [Tetracene]
- Quantum Yield [5]: 0.70
- Endpoint Class [6, 8]: H (high quantum yield for production of singlet oxygen (H, QY>0.50))

Structure (SMILES): C[C@]12CC[C@H](O)CC1=CC[C@@H]1[C@@H]2CC[C@]2(C)C(=O)CC[C@@H]12 [Dehydroepiandroster-one]
- Log-(RBA) beta [3]: −1.15
- Log-(RBA) alpha [7]: −1.40
- Class Input (estrogen receptor [4]; [10]): M (medium binders to the estrogen receptor were classified as having a log (RBA) of less than or equal to 0.0)

Structure (SMILES): c1ccc(-c2ccccc2)cc1 [Biphenyl]
- Endpoint Class [6]: H (key: high quantum yield for production of singlet oxygen (H, QY>0.50); low quantum yield for production of singlet oxygen (L, QY<0.50))

Structure (SMILES): CC(=O)[C@H]1CC[C@H]2[C@@H]3CCC4=CC(=O)CC[C@]4(C)[C@H]3CC[C@]12C [Progesterone]
- Class (estrogen receptor [1]): W (weak estrogen receptor binders were defined as having log(RBA)<−3.0)
- Log-(RBA) beta [3, 9]: −3.50
- Log-(RBA) alpha [7, 9]: −3.50
- Class Input (estrogen receptor [4]; [10]): M (medium binders to the estrogen receptor were classified as having a log (RBA) of less than or equal to 0.0)

Structure (SMILES): C[C@]12CC[C@H]3[C@@H](CCC4=CC(=O)CC[C@@]43C)[C@@H]1CC[C@@H]2O [Testosterone]
- Log-(RBA) beta [3]: −2.10
- Log-(RBA) alpha [7]: −2.10
- Class Input (estrogen receptor [4]; [10]): M (medium binders to the estrogen receptor were classified as having a log (RBA) of less than or equal to 0.0)

Structure (SMILES): O=C(C(=O)c1ccccc1)c1ccccc1 [Benzil]
- Endpoint Class [6, 8]: H (high quantum yield for production of singlet oxygen (H, QY>0.50))

Structure (SMILES): O=C1c2ccccc2C(=O)c2ccccc21 [9,10-Anthraquinone]
- Quantum Yield [5]: 0.15
- Endpoint Class [6, 8]: L (low quantum yield for production of singlet oxygen (L, QY<0.50))

Structure (SMILES): CC(=O)C(C)=O [Biacetyl]
- Quantum Yield [5]: 0.57
- Endpoint Class [6, 8]: H (high quantum yield for production of singlet oxygen (H, QY>0.50))

Structure (SMILES): O=c1c2ccccc2oc2ccccc12 [Xanthen-9-one]
- Quantum Yield [5]: 0.33
- Endpoint Class [6, 8]: L (low quantum yield for production of singlet oxygen (L, QY<0.50))

Structure (SMILES): C[C@H]1CCC[C@@H](O)CCCCCc2cc(O)cc(O)c2C(=O)O1 [β-Zearanol]
- Log-(RBA) alpha [7, 9]: −1.20
- Class Input (estrogen receptor [4]; [10]): M (medium binders to the estrogen receptor were classified as having a log (RBA) of less than or equal to 0.0)

Structure (SMILES): c1cc2ccc3cccc4ccc(c1)c2c34 [Pyrene]
- Quantum Yield [5]: 0.71
- Endpoint Class [6, 8]: H (high quantum yield for production of singlet oxygen (H, QY>0.50))

Structure (SMILES): C[C@]12CC[C@@H]3c4ccc(O)cc4CC[C@H]3[C@@H]1CC[C@H]2O [17α-Estradiol]
- Class (estrogen receptor [1]): S (strong estrogen receptor binders were defined as having log(RBA)>−0.25)
- log RBA (estrogen receptor [2]): 0.49
- Class Input (estrogen receptor [4]; [10]): S (Strong binders to the estrogen receptor were classified as having a log (RBA) over 0.0)
